Test results: patent publication US20250176550A1, “HERBICIDE COMPOSITION OF URACIL COMPOUND CONTAINING CARBOXYLATE FRAGMENT AND THE USE THEREOF” (Jiangsu Flag Chemical Industry Co., Ltd., priority 2022, published 2025)

What was measured:
Assay in all cases: Indoor virulence and combined effect, greenhouse pot test, post-emergence stem and leaf spray, fresh weight inhibition
Format in all cases: in vivo
[1] = test system: alopecurus japonicus
Procedure, shortened: (§1)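 Weeds in greenhouse pots received a spray-tower treatment, either post-emergence at the 3–4 leaf (grasses) or 4–6 leaf (broadleaf) stage, or pre-emergence as a soil spray 24 h after sowing. Compounds were applied in acetone diluted with 0.1 wt% Tween-80 water, alone or mixed, in g/ha. Fresh weight inhibition was measured at 21 days, with synergy judged by Gowing expected efficacy (E−E0 >10%).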

[2] = test system: digitaria sanguinalis; conditions: for Fresh weight suppression rate %, A single agent: Table 14
Procedure, shortened: as §1

[3] = test system: eleusine indica
Procedure, shortened: as §1

[4] = test system: lolium multiflorum
Procedure, shortened: as §1

[5] = test system: echinochloa crusgalli; conditions: for Fresh weight suppression rate %, A single dose: Table 22
Procedure, shortened: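 Greenhouse potted weeds sprayed post-emergence on stem and leaf at 3–4 leaf stage, with A and B alone or mixed; acetone solutions diluted in 0.1 wt% Tween-80, solvent-emulsifier water as blank.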

## COCCOC(=O)C(C)(C)OC(=O)c1cc(-n2c(=O)cc(C(F)(F)F)n(C)c2=O)c(F)cc1Cl [Compound A-273]
[1]; Table 5, 15 g a.i./ha, post-emergence, 21 days after treatment
  Fresh weight inhibition rate %, A single agent: 44.57%
[1]; Table 5, 20 g a.i./ha, post-emergence, 21 days after treatment
  Fresh weight inhibition rate %, A single agent: 61.55%
[1]; Table 5, 25 g a.i./ha, post-emergence, 21 days after treatment
  Fresh weight inhibition rate %, A single agent: 72.42%
[1]; Table 25, A 15 g a.i./ha
  Fresh weight inhibition rate %, A single agent: 44.57%
[1]; Table 25, A 20 g a.i./ha
  Fresh weight inhibition rate %, A single agent: 61.55%
[1]; Table 25, A 25 g a.i./ha
  Fresh weight inhibition rate %, A single agent: 72.42%
[1]; Table 25, A 30 g a.i./ha
  Fresh weight inhibition rate %, A single agent: 86.91%
[2]; Table 1, 10 g a.i./ha, post-emergence, 21 days after treatment
  Fresh weight inhibition rate %, A single agent: 45.50%
[2]; Table 1, 12.5 g a.i./ha, post-emergence, 21 days after treatment
  Fresh weight inhibition rate %, A single agent: 55.30%
[2]; Table 1, 20 g a.i./ha, post-emergence, 21 days after treatment
  Fresh weight inhibition rate %, A single agent: 60.47%
[2]; Table 1, 25 g a.i./ha, post-emergence, 21 days after treatment
  Fresh weight inhibition rate %, A single agent: 62.48%
[2]; Table 13, A 20 g a.i./ha
  Fresh weight inhibition rate %, A single agent: 60.47%
[2]; Table 13, A 25 g a.i./ha
  Fresh weight inhibition rate %, A single agent: 62.48%
[2]; Table 13, A 30 g a.i./ha
  Fresh weight inhibition rate %, A single agent: 63.97%
[2]; A 10 g a.i./ha
  Fresh weight suppression rate %, A single agent: 31.16%
[2]; A 15 g a.i./ha
  Fresh weight suppression rate %, A single agent: 59.30%
[2]; A 20 g a.i./ha
  Fresh weight suppression rate %, A single agent: 60.47%
[2]; A 30 g a.i./ha
  Fresh weight suppression rate %, A single agent: 65.40%
[2]; Table 15, A 15 g a.i./ha
  Fresh weight inhibition rate %, A single agent: 59.3%
[2]; Table 15, A 20 g a.i./ha
  Fresh weight inhibition rate %, A single agent: 60.47%
[2]; Table 15, A 25 g a.i./ha
  Fresh weight inhibition rate %, A single agent: 62.48%
[2]; Table 16, A 10 g a.i./ha
  Fresh weight inhibition rate %, A single agent: 9.55%
[2]; Table 16, A 20 g a.i./ha
  Fresh weight inhibition rate %, A single agent: 45.07%
[2]; Table 16, A 25 g a.i./ha
  Fresh weight inhibition rate %, A single agent: 58.81%
[2]; Table 16, A 30 g a.i./ha
  Fresh weight inhibition rate %, A single agent: 60.30%
[2]; Table 41, A 10 g a.i./ha
  Fresh weight inhibition rate %, A single agent: 45.50%
[2]; Table 41, A 15 g a.i./ha
  Fresh weight inhibition rate %, A single agent: 59.30%
[2]; Table 41, A 20 g a.i./ha
  Fresh weight inhibition rate %, A single agent: 60.47%
[2]; Table 41, A 25 g a.i./ha
  Fresh weight inhibition rate %, A single agent: 62.48%
[3]; Table 18, A 5 g a.i./ha
  Fresh weight inhibition rate %, A single agent: 34.65%
[3]; Table 18, A 10 g a.i./ha
  Fresh weight inhibition rate %, A single agent: 43.34%
[3]; Table 18, A 15 g a.i./ha
  Fresh weight inhibition rate %, A single agent: 55.00%
[3]; Table 18, A 20 g a.i./ha
  Fresh weight inhibition rate %, A single agent: 68.03%
[3]; Table 32, A 15 g a.i./ha
  Fresh weight inhibition rate %, A single agent: 55.00%
[3]; Table 32, A 20 g a.i./ha
  Fresh weight inhibition rate %, A single agent: 68.03%
[3]; Table 32, A 25 g a.i./ha
  Fresh weight inhibition rate %, A single agent: 70.36%
[3]; Table 33, A 10 g a.i./ha
  Fresh weight inhibition rate %, A single agent: 43.34%
[3]; Table 33, A 15 g a.i./ha
  Fresh weight inhibition rate %, A single agent: 55.00%
[3]; Table 33, A 20 g a.i./ha
  Fresh weight inhibition rate %, A single agent: 68.03%
[3]; Table 33, A 25 g a.i./ha
  Fresh weight inhibition rate %, A single agent: 70.36%
[3]; Table 33, A 30 g a.i./ha
  Fresh weight inhibition rate %, A single agent: 75.35%
[3]; Table 35, A 10 g a.i./ha
  Fresh weight inhibition rate %, A single agent: 43.34%
[3]; Table 35, A 15 g a.i./ha
  Fresh weight inhibition rate %, A single agent: 55.00%
[3]; Table 35, A 20 g a.i./ha
  Fresh weight inhibition rate %, A single agent: 68.03%
[3]; Table 35, A 25 g a.i./ha
  Fresh weight inhibition rate %, A single agent: 70.36%
[3]; Table 36, A 5 g a.i./ha
  Fresh weight inhibition rate %, A single agent: 34.65%
[3]; Table 36, A 10 g a.i./ha
  Fresh weight inhibition rate %, A single agent: 43.34%
[3]; Table 36, A 15 g a.i./ha
  Fresh weight inhibition rate %, A single agent: 55.00%
[3]; Table 36, A 20 g a.i./ha
  Fresh weight inhibition rate %, A single agent: 68.03%
[3]; Table 36, A 25 g a.i./ha
  Fresh weight inhibition rate %, A single agent: 70.36%
[4]; Table 19, A 5 g a.i./ha
  Fresh weight inhibition rate %, A single agent: 22.25%
[4]; Table 19, A 10 g a.i./ha
  Fresh weight inhibition rate %, A single agent: 50.48%
[4]; Table 19, A 15 g a.i./ha
  Fresh weight inhibition rate %, A single agent: 55.50%
[4]; Table 19, A 20 g a.i./ha
  Fresh weight inhibition rate %, A single agent: 60.05%
[4]; Table 20, A 5 g a.i./ha
  Fresh weight inhibition rate %, A single agent: 22.25%
[4]; Table 20, A 10 g a.i./ha
  Fresh weight inhibition rate %, A single agent: 50.48%
[4]; Table 20, A 15 g a.i./ha
  Fresh weight inhibition rate %, A single agent: 55.50%
[4]; Table 20, A 20 g a.i./ha
  Fresh weight inhibition rate %, A single agent: 60.05%
[4]; Table 27, A 15 g a.i./ha
  Fresh weight inhibition rate %, A single agent: 55.5%
[4]; Table 27, A 20 g a.i./ha
  Fresh weight inhibition rate %, A single agent: 60.05%
[4]; Table 27, A 25 g a.i./ha
  Fresh weight inhibition rate %, A single agent: 77.30%
[5]; Table 17, 15 g a.i./ha, post-emergence, 21 days after treatment
  Fresh weight inhibition rate %, A single agent: 30.04%
[5]; Table 17, 20 g a.i./ha, post-emergence, 21 days after treatment
  Fresh weight inhibition rate %, A single agent: 21.43%
[5]; Table 17, 25 g a.i./ha, post-emergence, 21 days after treatment
  Fresh weight inhibition rate %, A single agent: 19.41%
[5]; Table 37, A 10 g a.i./ha
  Fresh weight inhibition rate %, A single agent: 19.41%
[5]; Table 37, A 15 g a.i./ha
  Fresh weight inhibition rate %, A single agent: 21.43%
[5]; Table 37, A 20 g a.i./ha
  Fresh weight inhibition rate %, A single agent: 30.04%
[5]; Table 37, A 25 g a.i./ha
  Fresh weight inhibition rate %, A single agent: 38.28%
[5]; Table 44, A 10 g a.i./ha
  Fresh weight inhibition rate %, A single agent: 19.41%
[5]; Table 44, A 15 g a.i./ha
  Fresh weight inhibition rate %, A single agent: 21.43%
[5]; Table 44, A 20 g a.i./ha
  Fresh weight inhibition rate %, A single agent: 30.04%
[5]; Table 44, A 25 g a.i./ha
  Fresh weight inhibition rate %, A single agent: 38.28%

## CCOC(=O)C(C)(C)OC(=O)c1cc(-n2c(=O)cc(C(F)(F)F)n(C)c2=O)c(F)cc1Cl [Compound A-250]
[1]; Table 7, 15 g a.i./ha, post-emergence, 21 days after treatment
  Fresh weight inhibition rate %, A single agent: 39%
[1]; Table 7, 20 g a.i./ha, post-emergence, 21 days after treatment
  Fresh weight inhibition rate %, A single agent: 49.17%
[1]; Table 7, 25 g a.i./ha, post-emergence, 21 days after treatment
  Fresh weight inhibition rate %, A single agent: 55.39%
[2]; Table 29, A 15 g a.i./ha
  Fresh weight inhibition rate %, A single agent: 54.46%
[2]; Table 29, A 20 g a.i./ha
  Fresh weight inhibition rate %, A single agent: 61.09%
[2]; Table 29, A 25 g a.i./ha
  Fresh weight inhibition rate %, A single agent: 65.86%
[2]; Table 29, A 30 g a.i./ha
  Fresh weight inhibition rate %, A single agent: 71.11%
[2]; Table 31, A 15 g a.i./ha
  Fresh weight inhibition rate %, A single agent: 54.46%
[2]; Table 31, A 20 g a.i./ha
  Fresh weight inhibition rate %, A single agent: 61.09%
[2]; Table 31, A 25 g a.i./ha
  Fresh weight inhibition rate %, A single agent: 65.86%
[3]; Table 30, A 10 g a.i./ha
  Fresh weight inhibition rate %, A single agent: 43.34%
[3]; Table 30, A 15 g a.i./ha
  Fresh weight inhibition rate %, A single agent: 55.00%
[3]; Table 30, A 20 g a.i./ha
  Fresh weight inhibition rate %, A single agent: 68.03%
[3]; Table 30, A 25 g a.i./ha
  Fresh weight inhibition rate %, A single agent: 70.36%
[3]; Table 30, A 30 g a.i./ha
  Fresh weight inhibition rate %, A single agent: 75.35%
[4]; Table 34, A 15 g a.i./ha
  Fresh weight inhibition rate %, A single agent: 55.00%
[4]; Table 34, A 20 g a.i./ha
  Fresh weight inhibition rate %, A single agent: 68.03%
[4]; Table 34, A 25 g a.i./ha
  Fresh weight inhibition rate %, A single agent: 70.36%
[4]; Table 34, A 30 g a.i./ha
  Fresh weight inhibition rate %, A single agent: 75.35%
[4]; Table 38, A 10 g a.i./ha
  Fresh weight inhibition rate %, A single agent: 43.34%
[4]; Table 38, A 15 g a.i./ha
  Fresh weight inhibition rate %, A single agent: 55.00%
[4]; Table 38, A 20 g a.i./ha
  Fresh weight inhibition rate %, A single agent: 68.03%
[5]; Table 2, 15 g a.i./ha, post-emergence, 21 days after treatment
  Fresh weight inhibition rate %, A single agent: 26.41%
[5]; Table 2, 20 g a.i./ha, post-emergence, 21 days after treatment
  Fresh weight inhibition rate %, A single agent: 30.73%
[5]; Table 3, 20 g a.i./ha, post-emergence, 21 days after treatment
  Fresh weight inhibition rate %, A single agent: 30.73%
[5]; Table 3, 25 g a.i./ha, post-emergence, 21 days after treatment
  Fresh weight inhibition rate %, A single agent: 31.56%
[5]; Table 4, 15 g a.i./ha, post-emergence, 21 days after treatment
  Fresh weight inhibition rate %, A single agent: 26.41%
[5]; Table 4, 20 g a.i./ha, post-emergence, 21 days after treatment
  Fresh weight inhibition rate %, A single agent: 30.73%
[5]; Table 4, 25 g a.i./ha, post-emergence, 21 days after treatment
  Fresh weight inhibition rate %, A single agent: 31.56%
[5]; A 10 g a.i./ha
  Fresh weight suppression rate %, A single dose: 17.77%
[5]; A 15 g a.i./ha
  Fresh weight suppression rate %, A single dose: 26.41%
[5]; A 20 g a.i./ha
  Fresh weight suppression rate %, A single dose: 30.73%
[5]; A 25 g a.i./ha
  Fresh weight suppression rate %, A single dose: 31.56%
